Results from patent US20250011295A1, “USE OF 3-ARYLPHTHALIDES AND DERIVATIVES THEREOF AS ANTI-INFLAMMATORY AGENTS” (UNIVERSIDAD DE CÁDIZ, priority 2021, published 2025).

Key:
Type in all cases: cell-based
[1] = tested on: Bv.2 microglial cell line; assay: Nitrite production inhibition (Greiss colorimetric technique) in LPS-stimulated Bv.2 cells; conditions: LPS 2 μg·mL^−1, compound 10 μM; for Nitrite production, LPS or cytokines + Compound (10 μM): baseline = 1.00
Procedure: (§1) Anti-inflammatory activity was measured on Bv.2 microglial cell line (innate immune system of the central nervous system), macrophages, Raw 264.7 cell line (peripheral immune system), renal tubular cell lines, MCT (renal tubule epithelials) and pancreatic beta cells, INS-1 (insulin-producing cells targeted in the process leading to diabetes mellitus). […] The activation of the inflammatory process induces the secretion of nitrites (NO2) into the medium, so the induction and modulation of the inflammatory response by 3-(4,5-dihydroxy-2-(2-ethylthio)ethylphenyl)phthalide and 3-(2,4-dihydroxyphenyl)phthalide can be determined by means of the Greiss colorimetric technique.
(§2) Tables 1 and 2 show the results of the nitrite production inhibitory activity caused by compounds II and III (10 μM), respectively, on LPS-stimulated Bv2 and Raw264.7 cell lines and on cytokine-stimulated MCT and INS-1 cell lines.

[2] = tested on: macrophages, Raw 264.7 cell line; assay: Nitrite production inhibition (Greiss colorimetric technique) in LPS-stimulated Raw 264.7 cells; conditions: LPS 2 μg·mL^−1, compound 10 μM; for Nitrite production, LPS or cytokines + Compound (10 μM): baseline = 1.00
Procedure: as §1, §2

[3] = tested on: renal tubular cell lines, MCT; assay: Nitrite production inhibition (Greiss colorimetric technique) in cytokine-stimulated MCT cells; conditions: for % of reduction in nitrite production: cytokine cocktail 10 ng·mL^−1, compound 10 μM; for Nitrite production, LPS or cytokines + Compound (10 μM): cytokine cocktail (TNFα, IL1β, IFNγ, TFGβ) 10 ng·mL^−1, compound 10 μM, baseline = 1.00
Procedure: as §1, §2

[4] = tested on: pancreatic beta cells, INS-1; assay: Nitrite production inhibition (Greiss colorimetric technique) in cytokine-stimulated INS-1 cells; conditions: for % of reduction in nitrite production: cytokine cocktail 10 ng·mL^−1, compound 10 μM; for Nitrite production, LPS or cytokines + Compound (10 μM): cytokine cocktail (TNFα, IL1β, IFNγ, TFGβ) 10 ng·mL^−1, compound 10 μM, baseline = 1
Procedure: as §1, §2

[5] = tested on: Bv.2, Raw 264.7, MCT and INS-1 cell lines; assay: Cytotoxic effect in treated cell lines; conditions: any of the treated cell lines
[6] = tested on: Nos2; assay: Nos2 expression inhibition (qPCR) in retinal explants from BB rat; conditions: retinal explant, 20 μM for 24 h
Procedure: (§3) Anti-inflammatory activity was determined using organotypic cultures or retinal and kidney explants from a murine model which develops type 1 or autoimmune diabetes mellitus spontaneously, i.e., BioBreeding (BB) rat. This animal model of type 1 diabetes mellitus reproduces disease progression in a manner similar to that occurring in patients. Tissues, retina, and kidney are extracted, maintaining cytoarchitecture and tissue connections of each of the organs, from BB rats that are 7 weeks old, which is the time before the presence of constant hyperglycemia, which appears around weeks 9-11 of life. A prediabetic model with active inflammatory parameters that resemble those occurring during the progression of type 1 diabetes mellitus in patients is thereby obtained. The cultured explants were treated with 3-(2,4-dihydroxyphenyl)phthalide (compound III) at a dose of 20 μM for 24 h.
(§4) Activation of the inflammatory process induces nitric oxide synthase, Nos2, gene expression, with messenger RNA quantification being determined by means of the quantitative PCR technique (qPCR), and can show inflammatory response modulation in retinal and kidney explants from an animal model with type 1 or autoimmune diabetes mellitus.

[7] = tested on: Nos2; assay: Nos2 expression inhibition (qPCR) in kidney explants from BB rat; conditions: kidney explant, 20 μM for 24 h
Procedure: as §3, §4

[8] = 7 weeks old BB rat, untreated BB rat = 1.00

Q: For `CCSCCc1cc(O)c(O)cc1C1OC(=O)c2ccccc21` (stereo not shown) [Compound II, 3-(4,5-dihydroxy-2-(2-ethylthio)ethylphenyl)phthalide], which “% of reduction in nitrite production” value [1] is on record?
A: 48.31%

Q: What about the “Nitrite production, LPS or cytokines + Compound (10 μM)” value (from here on “Nitrite production … (10 μM)”) [1] of the same compound?
A: 1.98 ± 0.203

Q: What about the “% of reduction in nitrite production” value [2] of the same compound?
A: 79.88%

Q: And the “Nitrite production … (10 μM)” value [2]?
A: 1.38 ± 0.43

Q: What about the “% of reduction in nitrite production” value [3] of the same compound?
A: 77.91%

Q: What about the “Nitrite production … (10 μM)” value [3] of the same compound?
A: 1.788 ± 0.29

Q: And the “% of reduction in nitrite production” value [4]?
A: 18.82%

Q: What about the “Nitrite production … (10 μM)” value [4] of the same compound?
A: 3.644 ± 0.004

Q: And the cytotoxic effect ([5]; increasing doses for 24 h until the maximum concentration of 25 μM)?
A: no cytotoxic effect was detected

Q: With `O=C1OC(c2ccc(O)cc2O)c2ccccc21` (stereo not shown) [Compound III, 3-(2,4-dihydroxyphenyl)phthalide] as the compound, how does the “% of reduction in nitrite production” value [1] read?
A: 62.92%

Q: And the “Nitrite production … (10 μM)” value [1]?
A: 3.47 ± 0.27

Q: And the “% of reduction in nitrite production” value [2]?
A: 33.38%

Q: What about the “Nitrite production … (10 μM)” value [2] of the same compound?
A: 3.60 ± 0.42

Q: What about the “% of reduction in nitrite production” value [3] of the same compound?
A: 83.14%

Q: What about the “Nitrite production … (10 μM)” value [3] of the same compound?
A: 1.53 ± 0.06

Q: What about the “% of reduction in nitrite production” value [4] of the same compound?
A: 65.32%

Q: And the “Nitrite production … (10 μM)” value [4]?
A: 1.48 ± 0.02

Q: What about the cytotoxic effect ([5]; increasing doses for 24 h until the maximum concentration of 50 μM) of the same compound?
A: no cytotoxic effect was detected

Q: And the “Nos2 expression, BB rat + 3-(2,4-dihydroxyphenyl)phthalide (20 μM)” value [6, 8]?
A: 0.482 ± 0.05

Q: What about the “% of reduction of Nos2 expression” value ([6]; BB rat) of the same compound?
A: 51.8%

Q: And the “Nos2 expression, BB rat + 3-(2,4-dihydroxyphenyl)phthalide (20 μM)” value [7, 8]?
A: 0.348 ± 0.05

Q: And the “% of reduction of Nos2 expression” value ([7]; BB rat)?
A: 65.2%
